Experimental data as given in US8802597B2, “Herbicidal pyrimidines” (E I du Pont de Nemours and Company, priority 2003, dated 2014).

What was measured:
Test in all cases: Test D pre/postemergence
Assay type in all cases: in vivo
Conditions in all cases: scale 0 to 100 (100 = complete control)
[1] = tested on: wheat (Triticum aestivum)
How it was run: (§1)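 Formulation: non-phytotoxic solvent mix + surfactant; applied pre-emergence to seeds and post-emergence to 1–4 leaf plants (2–18 cm). Growth chamber 15–25 d; visual comparison with controls, 0 = no effect to 100 = complete control.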

[2] = tested on: wild mustard (Sinapis arvensis)
How it was run: as §1

[3] = tested on: lambsquarters (Chenopodium album)
How it was run: as §1

[4] = tested on: catchweed bedstraw (galium; Galium aparine)
How it was run: as §1

[5] = tested on: wild buckwheat (Polygonum convolvulus)
How it was run: as §1

[6] = tested on: Russian thistle (Salsola kali)
How it was run: as §1

[7] = tested on: kochia (Kochia scoparia)
How it was run: as §1

## Nc1nc(C2CC2)nc(C=O)c1Br [Compound 26]
[1]; Postemergence, 125 g ai/ha
  Plant response rating, Wheat: 45
[1]; Postemergence, 250 g ai/ha
  Plant response rating, Wheat: 20
[1]; Preemergence, 125 g ai/ha
  Plant response rating, Wheat: 25
[1]; Preemergence, 250 g ai/ha
  Plant response rating, Wheat: 35
[2]; Postemergence, 125 g ai/ha
  Plant response rating, Mustard, Wild: 60
[2]; Postemergence, 250 g ai/ha
  Plant response rating, Mustard, Wild: 75
[2]; Preemergence, 125 g ai/ha
  Plant response rating, Mustard, Wild: 65
[2]; Preemergence, 250 g ai/ha
  Plant response rating, Mustard, Wild: 65
[3]; Postemergence, 125 g ai/ha
  Plant response rating, Lambsquarters: 40
[3]; Postemergence, 250 g ai/ha
  Plant response rating, Lambsquarters: 50
[3]; Preemergence, 125 g ai/ha
  Plant response rating, Lambsquarters: 60
[3]; Preemergence, 250 g ai/ha
  Plant response rating, Lambsquarters: 65
[4]; Postemergence, 125 g ai/ha
  Plant response rating, Galium: 70
[4]; Postemergence, 250 g ai/ha
  Plant response rating, Galium: 85
[4]; Preemergence, 125 g ai/ha
  Plant response rating, Galium: 85
[4]; Preemergence, 250 g ai/ha
  Plant response rating, Galium: 100
[5]; Postemergence, 125 g ai/ha
  Plant response rating, Buckwheat, Wild: 35
[5]; Postemergence, 250 g ai/ha
  Plant response rating, Buckwheat, Wild: 55
[5]; Preemergence, 125 g ai/ha
  Plant response rating, Buckwheat, Wild: 65
[5]; Preemergence, 250 g ai/ha
  Plant response rating, Buckwheat, Wild: 95
[6]; Postemergence, 125 g ai/ha
  Plant response rating, Russian Thistle: 40
[6]; Postemergence, 250 g ai/ha
  Plant response rating, Russian Thistle: 40
[6]; Preemergence, 250 g ai/ha
  Plant response rating, Russian Thistle: 100
[7]; Postemergence, 125 g ai/ha
  Plant response rating, Kochia: 35
[7]; Postemergence, 250 g ai/ha
  Plant response rating, Kochia: 55
[7]; Preemergence, 125 g ai/ha
  Plant response rating, Kochia: 55
[7]; Preemergence, 250 g ai/ha
  Plant response rating, Kochia: 75

## COC(=O)c1nc(C2CC2)nc(NO)c1Br [Compound 35]
[1]; Postemergence, 62 g ai/ha
  Plant response rating, Wheat: 0
[1]; Postemergence, 125 g ai/ha
  Plant response rating, Wheat: 65
[1]; Postemergence, 250 g ai/ha
  Plant response rating, Wheat: 70
[1]; Preemergence, 62 g ai/ha
  Plant response rating, Wheat: 35
[1]; Preemergence, 125 g ai/ha
  Plant response rating, Wheat: 40
[1]; Preemergence, 250 g ai/ha
  Plant response rating, Wheat: 50
[2]; Postemergence, 62 g ai/ha
  Plant response rating, Mustard, Wild: 75
[2]; Postemergence, 125 g ai/ha
  Plant response rating, Mustard, Wild: 75
[2]; Postemergence, 250 g ai/ha
  Plant response rating, Mustard, Wild: 75
[2]; Preemergence, 62 g ai/ha
  Plant response rating, Mustard, Wild: 65
[2]; Preemergence, 125 g ai/ha
  Plant response rating, Mustard, Wild: 70
[2]; Preemergence, 250 g ai/ha
  Plant response rating, Mustard, Wild: 75
[3]; Postemergence, 62 g ai/ha
  Plant response rating, Lambsquarters: 100
[3]; Postemergence, 125 g ai/ha
  Plant response rating, Lambsquarters: 100
[3]; Postemergence, 250 g ai/ha
  Plant response rating, Lambsquarters: 100
[3]; Preemergence, 62 g ai/ha
  Plant response rating, Lambsquarters: 65
[3]; Preemergence, 125 g ai/ha
  Plant response rating, Lambsquarters: 75
[3]; Preemergence, 250 g ai/ha
  Plant response rating, Lambsquarters: 80
[4]; Postemergence, 62 g ai/ha
  Plant response rating, Galium: 100
[4]; Postemergence, 125 g ai/ha
  Plant response rating, Galium: 100
[4]; Postemergence, 250 g ai/ha
  Plant response rating, Galium: 100
[4]; Preemergence, 62 g ai/ha
  Plant response rating, Galium: 85
[4]; Preemergence, 125 g ai/ha
  Plant response rating, Galium: 100
[4]; Preemergence, 250 g ai/ha
  Plant response rating, Galium: 100
[5]; Postemergence, 62 g ai/ha
  Plant response rating, Buckwheat, Wild: 60
[5]; Postemergence, 125 g ai/ha
  Plant response rating, Buckwheat, Wild: 70
[5]; Postemergence, 250 g ai/ha
  Plant response rating, Buckwheat, Wild: 80
[5]; Preemergence, 62 g ai/ha
  Plant response rating, Buckwheat, Wild: 55
[5]; Preemergence, 125 g ai/ha
  Plant response rating, Buckwheat, Wild: 60
[5]; Preemergence, 250 g ai/ha
  Plant response rating, Buckwheat, Wild: 65
[6]; Postemergence, 62 g ai/ha
  Plant response rating, Russian Thistle: 100
[6]; Postemergence, 125 g ai/ha
  Plant response rating, Russian Thistle: 100
[6]; Postemergence, 250 g ai/ha
  Plant response rating, Russian Thistle: 100
[6]; Preemergence, 62 g ai/ha
  Plant response rating, Russian Thistle: 85
[6]; Preemergence, 125 g ai/ha
  Plant response rating, Russian Thistle: 100
[6]; Preemergence, 250 g ai/ha
  Plant response rating, Russian Thistle: 100
[7]; Postemergence, 62 g ai/ha
  Plant response rating, Kochia: 80
[7]; Postemergence, 125 g ai/ha
  Plant response rating, Kochia: 85
[7]; Postemergence, 250 g ai/ha
  Plant response rating, Kochia: 85
[7]; Preemergence, 62 g ai/ha
  Plant response rating, Kochia: 75
[7]; Preemergence, 125 g ai/ha
  Plant response rating, Kochia: 100
[7]; Preemergence, 250 g ai/ha
  Plant response rating, Kochia: 100
